According to US10870647B2, “Imidazopyridine derivative, method for preparing same, and pharmaceutical composition containing same as active ingredient for preventing or treating cancer” (DAEGU-GYEONGBUK MEDICAL INNOVATION FOUNDATION, priority 2016, dated 2020):

How the values were obtained:
Assay in all cases: Kinase selectivity, scanMAX Kinase assay panel (DiscoverX), % control at 1 uM
Type in all cases: binding
[1] = target: T1, scanMAX Kinase assay panel (Homo sapiens, UniProt O00444); settings: PLK4; 1 uM; read-out: Percent Control (%)
T1 construct: purchased DiscoverX
T1 sequence (O00444 1-970): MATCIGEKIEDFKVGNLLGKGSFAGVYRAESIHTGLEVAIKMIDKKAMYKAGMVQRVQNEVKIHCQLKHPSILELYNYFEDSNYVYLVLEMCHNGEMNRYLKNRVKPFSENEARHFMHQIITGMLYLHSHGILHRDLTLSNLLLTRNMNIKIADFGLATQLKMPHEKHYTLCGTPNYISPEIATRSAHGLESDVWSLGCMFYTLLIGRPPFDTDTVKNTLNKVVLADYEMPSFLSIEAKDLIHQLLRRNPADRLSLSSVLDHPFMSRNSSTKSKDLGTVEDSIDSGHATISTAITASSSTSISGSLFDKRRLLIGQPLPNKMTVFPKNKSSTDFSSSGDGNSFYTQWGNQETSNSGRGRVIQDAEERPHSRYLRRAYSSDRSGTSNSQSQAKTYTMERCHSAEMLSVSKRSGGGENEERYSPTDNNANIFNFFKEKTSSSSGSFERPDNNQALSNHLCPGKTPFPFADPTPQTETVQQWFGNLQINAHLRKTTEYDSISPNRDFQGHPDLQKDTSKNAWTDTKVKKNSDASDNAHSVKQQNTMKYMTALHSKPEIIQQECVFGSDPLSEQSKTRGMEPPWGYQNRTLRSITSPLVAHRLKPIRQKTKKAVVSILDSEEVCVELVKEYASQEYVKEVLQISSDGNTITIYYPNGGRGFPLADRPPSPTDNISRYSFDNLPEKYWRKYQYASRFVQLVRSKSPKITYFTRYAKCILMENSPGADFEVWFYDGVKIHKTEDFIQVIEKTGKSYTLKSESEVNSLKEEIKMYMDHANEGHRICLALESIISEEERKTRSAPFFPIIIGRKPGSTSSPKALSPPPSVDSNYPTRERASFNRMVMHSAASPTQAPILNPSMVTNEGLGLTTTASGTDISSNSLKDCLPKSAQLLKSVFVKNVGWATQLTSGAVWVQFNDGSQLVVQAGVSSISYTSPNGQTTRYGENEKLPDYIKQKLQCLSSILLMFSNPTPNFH
Summary of the method: (§1)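 Each kinase was first exposed to the test compound at 1 uM in DMSO. Signal was then normalised to positive and negative controls to give % control. Finally, any enzyme showing <35% control was judged inhibited.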

[2] = target: T2, scanMAX Kinase assay panel (Homo sapiens, UniProt P07332); settings: FES; 1 uM; read-out: Percent Control (%)
T2 construct: purchased DiscoverX
Summary of the method: as §1

[3] = target: T3, scanMAX Kinase assay panel (Homo sapiens, UniProt P27361); settings: ERK1; 1 uM; read-out: Percent Control (%)
T3 construct: purchased DiscoverX
Summary of the method: as §1

[4] = target: T4, scanMAX Kinase assay panel (Homo sapiens, UniProt P42338); settings: PIK3CB; 1 uM; read-out: Percent Control (%)
T4 construct: purchased DiscoverX
Summary of the method: as §1

[5] = target: T5, scanMAX Kinase assay panel (Homo sapiens, UniProt P50750); settings: CDK9; 1 uM; read-out: Percent Control (%)
T5 construct: purchased DiscoverX
Summary of the method: as §1

[6] = target: T6, scanMAX Kinase assay panel (Homo sapiens, UniProt Q8WXR4); settings: MYO3B; 1 uM; read-out: Percent Control (%)
T6 construct: purchased DiscoverX
T6 sequence (Q8WXR4 1-1341): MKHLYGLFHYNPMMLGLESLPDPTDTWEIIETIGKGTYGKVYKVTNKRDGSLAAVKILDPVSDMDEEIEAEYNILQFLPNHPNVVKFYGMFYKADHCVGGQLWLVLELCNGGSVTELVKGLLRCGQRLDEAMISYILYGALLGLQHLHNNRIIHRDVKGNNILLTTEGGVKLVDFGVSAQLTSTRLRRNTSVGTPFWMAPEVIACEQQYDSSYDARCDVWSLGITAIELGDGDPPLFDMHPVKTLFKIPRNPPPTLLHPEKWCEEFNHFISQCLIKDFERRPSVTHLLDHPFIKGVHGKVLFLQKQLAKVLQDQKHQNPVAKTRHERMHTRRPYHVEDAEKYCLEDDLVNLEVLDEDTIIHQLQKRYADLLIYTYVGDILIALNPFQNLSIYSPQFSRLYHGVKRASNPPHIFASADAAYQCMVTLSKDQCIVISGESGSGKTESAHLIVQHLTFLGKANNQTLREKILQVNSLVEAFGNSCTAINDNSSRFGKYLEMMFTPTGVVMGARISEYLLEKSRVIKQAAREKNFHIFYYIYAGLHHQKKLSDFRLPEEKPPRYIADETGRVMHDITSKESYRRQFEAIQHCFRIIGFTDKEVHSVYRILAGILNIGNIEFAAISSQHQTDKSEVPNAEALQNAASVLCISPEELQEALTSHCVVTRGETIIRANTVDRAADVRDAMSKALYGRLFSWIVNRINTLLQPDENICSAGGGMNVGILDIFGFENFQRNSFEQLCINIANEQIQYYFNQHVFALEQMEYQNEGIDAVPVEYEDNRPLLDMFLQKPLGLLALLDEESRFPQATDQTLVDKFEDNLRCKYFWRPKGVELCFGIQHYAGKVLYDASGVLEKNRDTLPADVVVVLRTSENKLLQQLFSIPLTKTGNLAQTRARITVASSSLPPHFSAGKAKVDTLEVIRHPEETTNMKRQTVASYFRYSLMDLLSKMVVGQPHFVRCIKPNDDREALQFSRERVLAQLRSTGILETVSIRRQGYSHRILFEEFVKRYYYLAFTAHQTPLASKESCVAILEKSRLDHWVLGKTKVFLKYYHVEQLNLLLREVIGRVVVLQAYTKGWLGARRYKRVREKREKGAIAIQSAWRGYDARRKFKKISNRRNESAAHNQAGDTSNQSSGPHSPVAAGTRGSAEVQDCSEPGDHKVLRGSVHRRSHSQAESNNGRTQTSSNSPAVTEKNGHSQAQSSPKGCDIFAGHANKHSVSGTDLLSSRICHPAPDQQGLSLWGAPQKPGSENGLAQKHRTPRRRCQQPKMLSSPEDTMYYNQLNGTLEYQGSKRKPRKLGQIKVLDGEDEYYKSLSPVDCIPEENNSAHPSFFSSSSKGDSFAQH
Summary of the method: as §1

T3 sequence (P27361 whole entry): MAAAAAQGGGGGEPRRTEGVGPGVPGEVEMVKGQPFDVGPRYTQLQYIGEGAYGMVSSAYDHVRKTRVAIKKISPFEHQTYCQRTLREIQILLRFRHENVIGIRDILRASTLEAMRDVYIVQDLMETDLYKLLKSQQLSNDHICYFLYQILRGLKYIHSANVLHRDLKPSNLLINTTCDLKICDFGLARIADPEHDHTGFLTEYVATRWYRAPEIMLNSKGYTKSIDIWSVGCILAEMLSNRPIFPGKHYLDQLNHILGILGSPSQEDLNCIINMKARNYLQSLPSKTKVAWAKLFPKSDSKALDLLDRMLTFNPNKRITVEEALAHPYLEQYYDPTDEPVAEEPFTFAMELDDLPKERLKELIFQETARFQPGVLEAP
T4 sequence (P42338 whole entry): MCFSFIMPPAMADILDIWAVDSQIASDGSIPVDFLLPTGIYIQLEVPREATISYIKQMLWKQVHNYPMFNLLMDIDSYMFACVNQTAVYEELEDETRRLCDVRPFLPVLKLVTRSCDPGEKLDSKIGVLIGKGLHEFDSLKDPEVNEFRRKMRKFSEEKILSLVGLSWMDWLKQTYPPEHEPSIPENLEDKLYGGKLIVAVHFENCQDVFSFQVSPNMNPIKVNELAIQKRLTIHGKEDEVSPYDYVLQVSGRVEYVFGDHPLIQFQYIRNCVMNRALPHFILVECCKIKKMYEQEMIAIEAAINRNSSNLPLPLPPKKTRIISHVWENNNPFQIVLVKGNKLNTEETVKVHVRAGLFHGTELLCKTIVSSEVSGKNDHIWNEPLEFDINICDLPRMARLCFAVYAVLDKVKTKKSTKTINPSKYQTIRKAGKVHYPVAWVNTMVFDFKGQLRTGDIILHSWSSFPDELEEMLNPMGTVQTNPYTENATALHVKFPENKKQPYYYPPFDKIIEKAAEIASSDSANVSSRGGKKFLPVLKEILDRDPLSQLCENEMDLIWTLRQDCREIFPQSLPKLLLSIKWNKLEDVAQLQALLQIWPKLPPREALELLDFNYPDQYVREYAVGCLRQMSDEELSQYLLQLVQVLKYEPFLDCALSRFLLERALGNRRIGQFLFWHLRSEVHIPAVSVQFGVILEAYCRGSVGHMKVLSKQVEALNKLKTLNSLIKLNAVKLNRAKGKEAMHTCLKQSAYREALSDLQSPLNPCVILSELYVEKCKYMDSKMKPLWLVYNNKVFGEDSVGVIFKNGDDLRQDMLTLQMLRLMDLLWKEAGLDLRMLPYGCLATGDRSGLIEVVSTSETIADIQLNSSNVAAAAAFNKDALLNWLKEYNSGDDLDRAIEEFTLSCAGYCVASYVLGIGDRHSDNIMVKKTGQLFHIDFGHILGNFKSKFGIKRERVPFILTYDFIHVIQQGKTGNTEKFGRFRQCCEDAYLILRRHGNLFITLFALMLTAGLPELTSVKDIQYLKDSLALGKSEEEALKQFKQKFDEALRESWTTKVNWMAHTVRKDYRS
T2 sequence (P07332 whole entry): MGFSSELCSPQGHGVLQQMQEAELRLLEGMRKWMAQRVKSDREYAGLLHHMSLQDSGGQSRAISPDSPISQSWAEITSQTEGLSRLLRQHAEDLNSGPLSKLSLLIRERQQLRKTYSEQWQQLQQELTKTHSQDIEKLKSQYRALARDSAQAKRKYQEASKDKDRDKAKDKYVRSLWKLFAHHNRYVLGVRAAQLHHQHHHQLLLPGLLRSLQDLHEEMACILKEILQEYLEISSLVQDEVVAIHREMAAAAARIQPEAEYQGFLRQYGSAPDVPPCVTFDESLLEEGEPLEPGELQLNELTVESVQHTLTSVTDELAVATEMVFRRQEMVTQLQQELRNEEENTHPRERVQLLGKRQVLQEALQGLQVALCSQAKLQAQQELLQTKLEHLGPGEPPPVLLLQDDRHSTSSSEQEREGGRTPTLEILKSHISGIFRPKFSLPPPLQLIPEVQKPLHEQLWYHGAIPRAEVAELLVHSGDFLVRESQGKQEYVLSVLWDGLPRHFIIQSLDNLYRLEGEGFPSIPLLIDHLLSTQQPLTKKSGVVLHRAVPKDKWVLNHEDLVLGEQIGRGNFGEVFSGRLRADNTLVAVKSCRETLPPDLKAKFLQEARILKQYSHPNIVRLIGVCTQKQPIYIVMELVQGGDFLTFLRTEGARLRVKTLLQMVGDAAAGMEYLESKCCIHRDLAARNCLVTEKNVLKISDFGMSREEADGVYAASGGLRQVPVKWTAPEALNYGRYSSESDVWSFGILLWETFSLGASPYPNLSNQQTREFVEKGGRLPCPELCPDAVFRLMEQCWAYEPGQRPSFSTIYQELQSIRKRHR
T5 sequence (P50750 whole entry): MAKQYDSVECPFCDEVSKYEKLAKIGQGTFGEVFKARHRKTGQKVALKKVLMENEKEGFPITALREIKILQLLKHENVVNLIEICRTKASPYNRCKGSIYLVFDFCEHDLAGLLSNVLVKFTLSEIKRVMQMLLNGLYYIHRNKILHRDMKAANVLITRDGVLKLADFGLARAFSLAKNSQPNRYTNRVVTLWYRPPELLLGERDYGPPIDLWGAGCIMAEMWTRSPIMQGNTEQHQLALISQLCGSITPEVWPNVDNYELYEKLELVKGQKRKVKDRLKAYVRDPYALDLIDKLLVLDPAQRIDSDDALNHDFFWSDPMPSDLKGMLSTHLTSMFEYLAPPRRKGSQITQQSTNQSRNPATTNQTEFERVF

Row | Compound | remaining binding at 1 µM [1] | remaining binding at 1 µM [2] | remaining binding at 1 µM [3] | remaining binding at 1 µM [4] | remaining binding at 1 µM [5] | remaining binding at 1 µM [6]
1 | Cc1ccc(NC(=O)C2(C(=O)Nc3ccc(F)cc3)CC2)cc1C#Cc1cnc2c(Nc3cnn(C(C)C)c3)cccn12 [Example 78] | 100% | 100% | 100% | 100% | 100% | 92%
2 | Cc1cn(-c2cc(NC(=O)c3ccc(C)c(C#Cc4cnc5c(Nc6cnn(C)c6)cccn45)c3)cc(C(F)(F)F)c2)cn1 [Example 12, 4-methyl-N-(3-(4-methyl-1H-imidazol-1-yl)-5-(trifluoromethyl)phenyl)-3-((8-((1-methyl-1H-pyrazol-4-yl)amino)imidazo[1,2-a]pyridin-3-yl)ethynyl)benzamide] | 85% | 6% | 100% | 100% | 88% | 81%
3 | Cc1ccc(C(=O)Nc2ccc(CN3CCN(C)CC3)c(C(F)(F)F)c2)cc1C#Cc1cnc2c(Nc3cnn(C)c3)cccn12 [Example 1, 4-methyl-3-((8-((1-methyl-1H-pyrazol-4-yl)amino)imidazo[1,2-a]pyridin-3-yl)ethynyl)-N-(4-((4-methylpiperazin-1-yl)methyl)-3-(trifluoromethyl)phenyl)benzamide] | 79% | 0% | 87% | 92% | 72% | 35%
